For nine compounds, Ki results are on record in ChEMBL document CHEMBL3612028, “Design, synthesis, pharmacological evaluation and molecular dynamics of β-amino acids morphan-derivatives as novel ligands for opioid receptors” (Eur J Med Chem, 2015).

Each structure is given as a SMILES string. Some results are limits rather than exact numbers.

The nature of assay [1]: Displacement of [3H]-diprenorphine from opioid receptor in rat brain membrane homogenates after 1 hr by liquid scintillation counting. The class given is cell membranes. A general note: Loss of bound radioactivity is the signal in a displacement assay; it reports binding, not function.
In assay [2] the target is Mu opioid receptor-like OR2 (Danio rerio, UniProt B8JHS2). Kind of assay: Displacement of [3H]-diprenorphine from zebrafish mu opioid receptor expressed in HEK293 cells after 1 hr by liquid scintillation counting. The class given is cell-based.
Mu opioid receptor-like OR2, sequence (B8JHS2 whole entry): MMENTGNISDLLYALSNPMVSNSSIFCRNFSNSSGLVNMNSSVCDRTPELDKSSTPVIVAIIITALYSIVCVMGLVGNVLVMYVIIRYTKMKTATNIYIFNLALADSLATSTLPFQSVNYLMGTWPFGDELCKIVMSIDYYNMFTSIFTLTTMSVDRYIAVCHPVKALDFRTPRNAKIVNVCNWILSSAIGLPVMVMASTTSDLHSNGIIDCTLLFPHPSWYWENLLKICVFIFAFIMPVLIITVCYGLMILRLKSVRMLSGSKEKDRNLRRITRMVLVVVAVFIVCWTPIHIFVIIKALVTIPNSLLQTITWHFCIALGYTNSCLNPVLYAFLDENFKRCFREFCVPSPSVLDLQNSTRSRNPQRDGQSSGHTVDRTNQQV

On to `O=C(O)[C@@H]1[C@@H]2CCC[C@H]1NCC2`, for which the inhibition constant Ki – broadly, the dissociation constant of the complex between target and ligand, obtained from inhibition or displacement – in assay [1] was more than 100 µM.
With `COC(=O)[C@@H]1[C@@H]2CCC[C@H]1NCC2`, the Ki in assay [2] amounted to 35.3 µM; in assay [1], 17.1 µM.
In the same order, the values of `COC(=O)[C@@H]1[C@@H]2CCC[C@H]1N(Cc1ccccc1)CC2` are 37 µM and 14.8 µM.
For `O=C(Oc1ccccc1)[C@@H]1[C@@H]2CCC[C@H]1NCC2` the same measures were 32 µM and 10.9 µM.
With `COC(=O)[C@@H]1[C@@H]2CCC[C@H]1N(CCc1ccccc1)CC2`, the inhibition constant Ki in assay [2] amounted to 8.24 µM; in assay [1], 2.69 µM.
Regarding `O=C(Oc1cccc(O)c1)[C@@H]1[C@@H]2CCC[C@H]1NCC2`, the Ki in assay [2] was determined as 9.52 µM; in assay [1] it was 4.04 µM.
In the case of `O=C(Oc1ccc(O)cc1)[C@@H]1[C@@H]2CCC[C@H]1NCC2`, the inhibition constant Ki stood at 12.7 µM in assay [2] and 1.92 µM in assay [1].
On to `COC(=O)[C@H](Cc1ccccc1)NC(=O)[C@@H]1[C@@H]2CCC[C@H]1NCC2`, for which the Ki came out at 78 µM in assay [2] and 14.8 µM in assay [1].
Consider `COC(=O)[C@@H]1[C@@H]2CCC[C@H]1N(C(=O)[C@@H](N)Cc1ccccc1)CC2`, for which the inhibition constant (Ki) in assay [2] was 75.8 µM; in assay [1], 32.9 µM.
